According to patent US20220177428A1, “SPECIFICALLY SUBSTITUTED 3-(2-ALKOXY-6-ALKYL-4-PROPINYLPHENYL)-3-PYRROLIN-2-ONES AND THEIR USE AS HERBICIDES” (Bayer Aktiengesellschaft, priority 2019, published 2022):

Assays:
Assay type in all cases: in vivo
Setaria viridis [1] = assay: Post-emergence herbicidal effect; details: 80 g ai/ha, visual score after about 3 weeks
Procedure: (§1) [table] Seeds of monocotyledonous and dicotyledonous weed and crop plants are laid out in sandy loam soil in wood-fibre pots, covered with soil and cultivated in a greenhouse under good growth conditions. 2 to 3 weeks after sowing, the test plants are treated at the one-leaf stage. The compounds of the invention, formulated in the form of wettable powders (WP) or as emulsion concentrates (EC), are then sprayed onto the green parts of the plants as aqueous suspension or emulsion at a water application rate equating to 600 to 800 L/ha with addition of 0.2% wetting agent. After the test plants have been left to stand in the greenhouse under optimal growth conditions for about 3 weeks, the action of the preparations is assessed visually in comparison to untreated controls (herbicidal action in percent (%): 100% activity=the plants have died, 0% activity=like control plants).

Alopecurus myosuroides [2] = assay: Post-emergence herbicidal effect; details: 80 g ai/ha, visual score after about 3 weeks
Procedure: as §1

Echinochloa crus-galli [3] = assay: Post-emergence herbicidal effect; details: 80 g ai/ha, visual score after about 3 weeks
Procedure: as §1

Digitaria sanguinalis [4] = assay: Post-emergence herbicidal effect; details: 80 g ai/ha, visual score after about 3 weeks
Procedure: as §1

Lolium rigidum [5] = assay: Post-emergence herbicidal effect; details: 80 g ai/ha, visual score after about 3 weeks
Procedure: as §1

Avena fatua [6] = assay: Post-emergence herbicidal effect; details: 80 g ai/ha, visual score after about 3 weeks
Procedure: as §1

Veronica persica = assay: Pre-emergence herbicidal effect; details: 320 g ai/ha, visual score after 3 weeks
Source text: (§2) Seeds of monocotyledonous and dicotyledonous weed plants and crop plants are laid out in sandy loam soil in wood-fibre pots and covered with soil. The compounds of the invention, formulated in the form of wettable powders (WP) or as emulsion concentrates (EC), are then applied to the surface of the covering soil as aqueous suspension or emulsion at a water application rate equating to 600 to 800 L/ha with addition of 0.2% wetting agent. After the treatment, the pots are placed in a greenhouse and kept under good growth conditions for the trial plants. The damage to the test plants is scored visually after a test period of 3 weeks by comparison with untreated controls (herbicidal activity in percent (%): 100% activity=the plants have died, 0% activity=like control plants). [table]

Setaria viridis [7] = assay: Pre-emergence herbicidal effect; details: visual score after 3 weeks
Source text: as §2

Amaranthus retroflexus = assay: Pre-emergence herbicidal effect; details: 320 g ai/ha, visual score after 3 weeks
Source text: as §2

Alopecurus myosuroides [8] = assay: Pre-emergence herbicidal effect; details: visual score after 3 weeks
Source text: as §2

Abutylon threophrasti = assay: Pre-emergence herbicidal effect; details: 320 g ai/ha, visual score after 3 weeks
Source text: as §2

Matricaria inodora = assay: Pre-emergence herbicidal effect; details: 320 g ai/ha, visual score after 3 weeks
Source text: as §2

Viola tricolor = assay: Pre-emergence herbicidal effect; details: visual score after 3 weeks
Source text: as §2

Echinochloa crus-galli [9] = assay: Pre-emergence herbicidal effect; details: visual score after 3 weeks
Source text: as §2

Digitaria sanguinalis [10] = assay: Pre-emergence herbicidal effect; details: visual score after 3 weeks
Source text: as §2

Lolium rigidum [11] = assay: Pre-emergence herbicidal effect; details: visual score after 3 weeks
Source text: as §2

Avena fatua [12] = assay: Pre-emergence herbicidal effect; details: visual score after 3 weeks
Source text: as §2

CC#Cc1cc(C)c(C2=C(OC(=O)OCC)C3(CCC(COC)CC3)NC2=O)c(OC)c1 (stereo not drawn) [Example Q8]
Post-emergence activity SETVI (Setaria viridis [1]): 100%
Post-emergence activity ALOMY (Alopecurus myosuroides [2]): 100%
Post-emergence activity ECHCG (Echinochloa crus-galli [3]): 100%
Post-emergence activity DIGSA (Digitaria sanguinalis [4]): 100%
Post-emergence activity LOLRI (Lolium rigidum [5]): 100%
Post-emergence activity AVEFA (Avena fatua [6]): 100%
Pre-emergence activity VERPE (Veronica persica): 100%
Pre-emergence activity SETVI (Setaria viridis [7]; 80 g ai/ha): 100%
Pre-emergence activity SETVI (Setaria viridis [7]; 320 g ai/ha): 100%
Pre-emergence activity AMARE (Amaranthus retroflexus): 100%
Pre-emergence activity ALOMY (Alopecurus myosuroides [8]; 80 g ai/ha): 100%
Pre-emergence activity ALOMY (Alopecurus myosuroides [8]; 320 g ai/ha): 100%
Pre-emergence activity ABUTH (Abutylon threophrasti): 100%
Pre-emergence activity MATIN (Matricaria inodora): 100%
Pre-emergence activity VIOTR (Viola tricolor; 80 g ai/ha): 100%
Pre-emergence activity VIOTR (Viola tricolor; 320 g ai/ha): 100%
Pre-emergence activity ECHCG (Echinochloa crus-galli [9]; 80 g ai/ha): 100%
Pre-emergence activity ECHCG (Echinochloa crus-galli [9]; 320 g ai/ha): 100%
Pre-emergence activity DIGSA (Digitaria sanguinalis [10]; 80 g ai/ha): 100%
Pre-emergence activity DIGSA (Digitaria sanguinalis [10]; 320 g ai/ha): 100%
Pre-emergence activity LOLRI (Lolium rigidum [11]; 80 g ai/ha): 100%
Pre-emergence activity LOLRI (Lolium rigidum [11]; 320 g ai/ha): 100%
Pre-emergence activity AVEFA (Avena fatua [12]; 80 g ai/ha): 80%
Pre-emergence activity AVEFA (Avena fatua [12]; 320 g ai/ha): 100%
